{
  "source": "patent US8455544B2",
  "about": "“Synthetic triterpenoids and methods of use in the treatment of disease” (Reata Pharmaecuticals, Inc., priority 2008, dated 2013)",
  "key": {"[1]": {"tested_on": "IFNγ-induced NO production in RAW264.7 macrophages", "assay": "Suppression of IFNγ-induced NO production (Griess reagent system)", "assay_type": "cell-based", "settings": "Mus musculus; RAW264.7, pre-treated 2 hours, then 20 ng/ml IFNγ for 24 hours"}, "[2]": {"assay": "Serum creatinine in toxicology studies, rats", "assay_type": "in vivo, Sprague-Dawley rats", "settings": "oral, once daily, one month (crystalline) or three months (amorphous form)", "protocol": "(§1) FIGS. 3a-d—RTA 402 reduces serum creatinine levels in monkeys, dogs, and rats. (FIG. 3a) Cynomolgus monkeys were administered RTA 402 orally at the indicated doses once daily for 28 days. The percent reduction of serum creatinine on Day 28 in RTA 402-treated monkeys relative to vehicle-treated control monkeys is shown. (FIG. 3b) RTA 402 was administered orally to beagle dogs at the indicated doses daily for three months. Control animals received vehicle (sesame oil). The percent change in serum creatinine at the three-month time point relative to baseline is shown. (FIG. 3c) Sprague-Dawley rats were administered RTA 402 orally at the indicated doses once daily for a period of one month. The percent reduction of serum creatinine at study completion in RTA 402-treated rats relative to vehicle-treated control rats is shown. (FIG. 3d) Sprague-Dawley rats were administered the amorphous form of RTA 402 orally at the indicated doses once daily for a period of three months. The percent reduction of serum creatinine at study completion in RTA 402-treated rats relative to vehicle-treated control rats is shown. […] For example, a reading of −15 on this axis indicates a 15% reduction in serum creatinine.\n(§2) Serum creatinine has been measured in several animal species treated with RTA 402 in the course of toxicology studies. […]"}, "[3]": {"assay": "Serum creatinine in toxicology study, monkeys", "assay_type": "in vivo, cynomolgus monkeys", "settings": "oral, once daily for 28 days", "protocol": "as §1, §2"}, "[4]": {"tested_on": "patients with diabetic nephropathy", "assay": "Hyperinsulinemic euglycemic clamp test, Phase II study", "assay_type": "in vivo, human", "settings": "after the 28 day treatment"}, "patients with cancer": {"tested_on": "patients with cancer", "assay": "Phase I clinical trial in patients with cancer (solid tumor study): serum creatinine, eGFR", "assay_type": "in vivo, human", "protocol": "FIGS. 4A-B—RTA 402 reduces serum creatinine levels and increases the estimated glomerular filtration rate (eGFR) in human patients with cancer. FIG. 4A: Serum creatinine was measured in RTA 402-treated patients enrolled in a Phase I clinical trial for the treatment of cancer. The patients were administered RTA 402 (p.o.) once daily for 21 days at doses ranging from 5 to 1,300 mg/day. The percent reduction of serum creatinine relative to baseline levels is shown for the indicated study days. Significant decreases in serum creatinine levels were observed on Days 15 and 21. FIG. 4B: The estimated glomerular filtration rate (eGFR) was calculated for the patients in FIG. 4A. […] All patients: n=24; patients with baseline ≧1.5: n=5. For FIGS. 4A and 4B, * indicates p≦0.04; † indicates p=0.01, and ‡ indicates p≦0.01. Note: in FIG. 4A, “% Reduction from Baseline” on the vertical axis indicates percent change. For example, a reading of −15 on this axis indicates a 15% reduction in serum creatinine.\nFIG. 5—RTA 402 increases GFR in human patients with cancer. Estimated glomerular filtration rate (eGFR) was measured in RTA 402-treated patients enrolled in a multi-month clinical trial for the treatment of cancer. All patients (n=11) dosed through six months were included in the analysis. The dosing information for these patients is provided in Example 5, below.\nSerum creatinine has also been measured in patients with cancer enrolled in a Phase I clinical trial of RTA 402. These patients received RTA 402 once daily at doses from 5 to 1,300 mg/day for a total of twenty-one days every 28 days. A reduction in serum creatinine by greater than 15% was observed as early as eight days following treatment initiation and persisted through the end of the cycle (FIG. 4A). This reduction was maintained in those patients that received six or more cycles of treatment with RTA 402. […] In these patients, serum creatinine levels decreased progressively throughout the cycle such that the Day 21 levels were approximately 25% lower than baseline levels (FIG. 4A).\nSome of these patients were enrolled in the Phase I study, whereas others were enrolled in a study of RTA 402 (in combination with gemcitabine) in patients with pancreatic cancer."}},
  "data": [
    {"compound": "COC(=O)[C@]12CCC(C)(C)C[C@H]1[C@H]1C(=O)C=C3[C@@]4(C)C=C(C#N)C(=O)C(C)(C)[C@@H]4CC[C@@]3(C)[C@]1(C)CC2", "note": "[RTA 402, methyl-2-cyano-3,12-dioxooleana-1,9-dien-28-oic acid]", "values": [
      {"measurement": "IC50", "setting": "[1]", "value": 2.2, "unit": "nM"},
      {"measurement": "Serum creatinine levels relative to control animals", "setting": "[2]", "value": "Significant reductions"},
      {"measurement": "Serum creatinine levels relative to control animals", "setting": "[3]", "value": "Significant reductions"},
      {"measurement": "Glucose disposal rate (GDR)", "setting": "[4]", "value": "improvements"},
      {"measurement": "Glucose disposal rate (GDR)", "setting": "[4]; more severely impaired patients (GDR<4), p≦0.02", "value": "statistically significant improvements"},
      {"measurement": "Reduction in serum creatinine", "setting": "patients with cancer; 5 to 1,300 mg/day once daily for 21 days every 28 days, as early as eight days following treatment initiation", "value": "greater than 15%"},
      {"measurement": "Serum creatinine lower than baseline levels", "setting": "patients with cancer; Day 21, subset with baseline serum creatinine of at least 1.5 mg/dl", "value": "approximately 25%"},
      {"measurement": "Estimated glomerular filtration rate (eGFR)", "setting": "patients with cancer; Phase I patients, 21 days", "value": "significantly improved"},
      {"measurement": "eGFR", "setting": "patients with cancer; Pt 402, dose 5 mg, cycle 1 (28 days each), BL 109.7", "value": 109.7},
      {"measurement": "eGFR", "setting": "patients with cancer; Pt 402, dose 5 mg, cycle 2, BL 109.7", "value": 109.7},
      {"measurement": "eGFR", "setting": "patients with cancer; Pt 402, dose 5 mg, cycle 3, BL 109.7", "value": 95.7},
      {"measurement": "eGFR", "setting": "patients with cancer; Pt 402, dose 5 mg, cycle 4, BL 109.7", "value": 95.7},
      {"measurement": "eGFR", "setting": "patients with cancer; Pt 402, dose 5 mg, cycle 5, BL 109.7", "value": 109.7},
      {"measurement": "eGFR", "setting": "patients with cancer; Pt 402, dose 5 mg, cycle 6, BL 109.7", "value": 95.7},
      {"measurement": "eGFR", "setting": "patients with cancer; Pt 406, dose 80 mg, cycle 1, BL 94.2", "value": 125.9},
      {"measurement": "eGFR", "setting": "patients with cancer; Pt 406, dose 80 mg, cycle 2, BL 94.2", "value": 107.9},
      {"measurement": "eGFR", "setting": "patients with cancer; Pt 406, dose 80 mg, cycle 3, BL 94.2", "value": 107.9},
      {"measurement": "eGFR", "setting": "patients with cancer; Pt 406, dose 80 mg, cycle 4, BL 94.2", "value": 125.9},
      {"measurement": "eGFR", "setting": "patients with cancer; Pt 406, dose 80 mg, cycle 5, BL 94.2", "value": 107.9},
      {"measurement": "eGFR", "setting": "patients with cancer; Pt 406, dose 80 mg, cycle 6, BL 94.2", "value": 125.9},
      {"measurement": "eGFR", "setting": "patients with cancer; Pt 408, dose 150 mg, cycle 1, BL 73.2", "value": 82.1},
      {"measurement": "eGFR", "setting": "patients with cancer; Pt 408, dose 150 mg, cycle 2, BL 73.2", "value": 77.4},
      {"measurement": "eGFR", "setting": "patients with cancer; Pt 408, dose 150 mg, cycle 3, BL 73.2", "value": 69.4},
      {"measurement": "eGFR", "setting": "patients with cancer; Pt 408, dose 150 mg, cycle 4, BL 73.2", "value": 77.4},
      {"measurement": "eGFR", "setting": "patients with cancer; Pt 408, dose 150 mg, cycle 5, BL 73.2", "value": 77.4},
      {"measurement": "eGFR", "setting": "patients with cancer; Pt 408, dose 150 mg, cycle 6, BL 73.2", "value": 87.4},
      {"measurement": "eGFR", "setting": "patients with cancer; Pt 409, dose 150/300 mg, cycle 1, BL 48.4", "value": 62.6},
      {"measurement": "eGFR", "setting": "patients with cancer; Pt 409, dose 150/300 mg, cycle 2, BL 48.4", "value": 62.6},
      {"measurement": "eGFR", "setting": "patients with cancer; Pt 409, dose 150/300 mg, cycle 3, BL 48.4", "value": 62.6},
      {"measurement": "eGFR", "setting": "patients with cancer; Pt 409, dose 150/300 mg, cycle 4, BL 48.4", "value": 57.0},
      {"measurement": "eGFR", "setting": "patients with cancer; Pt 409, dose 150/300 mg, cycle 5, BL 48.4", "value": 69.2},
      {"measurement": "eGFR", "setting": "patients with cancer; Pt 409, dose 150/300 mg, cycle 6, BL 48.4", "value": 69.2},
      {"measurement": "eGFR", "setting": "patients with cancer; Pt 410, dose 300/600 mg, cycle 1, BL 49.9", "value": 69.6},
      {"measurement": "eGFR", "setting": "patients with cancer; Pt 410, dose 300/600 mg, cycle 2, BL 49.9", "value": 63.4},
      {"measurement": "eGFR", "setting": "patients with cancer; Pt 410, dose 300/600 mg, cycle 3, BL 49.9", "value": 63.4},
      {"measurement": "eGFR", "setting": "patients with cancer; Pt 410, dose 300/600 mg, cycle 4, BL 49.9", "value": 69.6},
      {"measurement": "eGFR", "setting": "patients with cancer; Pt 410, dose 300/600 mg, cycle 5, BL 49.9", "value": 63.4},
      {"measurement": "eGFR", "setting": "patients with cancer; Pt 410, dose 300/600 mg, cycle 6, BL 49.9", "value": 69.6},
      {"measurement": "eGFR", "setting": "patients with cancer; Pt 421, dose 1300/900 mg, cycle 1, BL 52.5", "value": 58.6},
      {"measurement": "eGFR", "setting": "patients with cancer; Pt 421, dose 1300/900 mg, cycle 2, BL 52.5", "value": 66.2},
      {"measurement": "eGFR", "setting": "patients with cancer; Pt 421, dose 1300/900 mg, cycle 3, BL 52.5", "value": 75.8},
      {"measurement": "eGFR", "setting": "patients with cancer; Pt 421, dose 1300/900 mg, cycle 5, BL 52.5", "value": 88.4},
      {"measurement": "eGFR", "setting": "patients with cancer; Pt 421, dose 1300/900 mg, cycle 6, BL 52.5", "value": 75.8},
      {"measurement": "eGFR", "setting": "patients with cancer; Pt 427, dose 1300 mg, cycle 1, BL 70.1", "value": 101.3},
      {"measurement": "eGFR", "setting": "patients with cancer; Pt 427, dose 1300 mg, cycle 2, BL 70.1", "value": 78.3},
      {"measurement": "eGFR", "setting": "patients with cancer; Pt 427, dose 1300 mg, cycle 3, BL 70.1", "value": 88.4},
      {"measurement": "eGFR", "setting": "patients with cancer; Pt 427, dose 1300 mg, cycle 4, BL 70.1", "value": 101.3},
      {"measurement": "eGFR", "setting": "patients with cancer; Pt 427, dose 1300 mg, cycle 5, BL 70.1", "value": 101.3},
      {"measurement": "eGFR", "setting": "patients with cancer; Pt 427, dose 1300 mg, cycle 6, BL 70.1", "value": 101.3},
      {"measurement": "% Serum Creatinine Decrease from Baseline", "setting": "patients with cancer; all patients, n=45, Day 21", "value": "−18.3", "unit": "%"},
      {"measurement": "% of Patients with Decrease on Day 21 (serum creatinine)", "setting": "patients with cancer; all patients, n=45, drug for at least 3 weeks", "value": 87, "unit": "%"},
      {"measurement": "% of Patients with Decrease on Day 21 (serum creatinine)", "setting": "patients with cancer; sub-set with elevated baseline serum creatinine levels, n=8", "value": 100, "unit": "%"},
      {"measurement": "% Serum Creatinine Decrease from Baseline", "setting": "patients with cancer; sub-set with elevated baseline serum creatinine levels, n=8, Day 21", "value": "−24.5", "unit": "%"}
    ]}
  ]
}
